Data on three compounds can be found in ChEMBL document CHEMBL1201862, “PubChem BioAssay data set” (2004).

A word on the IC50: it is the concentration that inhibits the measured activity by half.

Activity calls are given as the source filed them. Rule as the data show it: actives have a measured IC50 and inactives only a lower limit.

Chain of Envelope glycoprotein gp160 (Q6QLK5 whole entry, the tested form may be a part): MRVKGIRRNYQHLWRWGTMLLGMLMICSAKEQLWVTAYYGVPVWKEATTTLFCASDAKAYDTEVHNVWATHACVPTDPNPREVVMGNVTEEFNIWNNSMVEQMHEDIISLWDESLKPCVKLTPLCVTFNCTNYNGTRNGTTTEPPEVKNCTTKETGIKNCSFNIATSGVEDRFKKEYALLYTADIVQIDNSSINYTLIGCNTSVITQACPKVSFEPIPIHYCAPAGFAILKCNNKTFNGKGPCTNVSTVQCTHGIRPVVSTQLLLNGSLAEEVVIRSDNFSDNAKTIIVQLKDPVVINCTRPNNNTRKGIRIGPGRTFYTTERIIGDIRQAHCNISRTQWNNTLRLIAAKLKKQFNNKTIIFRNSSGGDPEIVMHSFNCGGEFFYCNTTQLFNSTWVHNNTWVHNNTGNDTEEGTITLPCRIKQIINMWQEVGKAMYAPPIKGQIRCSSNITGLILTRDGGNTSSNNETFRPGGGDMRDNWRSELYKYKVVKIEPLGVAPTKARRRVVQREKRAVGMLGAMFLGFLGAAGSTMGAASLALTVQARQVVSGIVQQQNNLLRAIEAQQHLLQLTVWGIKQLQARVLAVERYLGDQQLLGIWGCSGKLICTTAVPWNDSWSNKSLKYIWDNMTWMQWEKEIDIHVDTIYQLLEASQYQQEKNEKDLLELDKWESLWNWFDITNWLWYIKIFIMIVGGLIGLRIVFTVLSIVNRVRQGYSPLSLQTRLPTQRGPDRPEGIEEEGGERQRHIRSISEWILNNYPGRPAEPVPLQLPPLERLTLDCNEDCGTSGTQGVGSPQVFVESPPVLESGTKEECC

The experiment has as its target Envelope glycoprotein gp160 (Human immunodeficiency virus 1, UniProt Q6QLK5). The experiment is described as follows: cell-free HIV fusion peptide-binding blockers – biochemical, uHTS, fluorescence dequenching, […] (AID 1986).
As for `COc1ccc(C(=O)/C=C/c2ccc(OCc3ccccc3)cc2)cc1CSCC(=O)O`, the half-maximal inhibitory concentration (IC50) was 25.7 µM (active). Consider `O=S(=O)(Nc1nc2ccccc2nc1Nc1cccc(S(=O)(=O)N2CCCCC2)c1)c1ccccc1`, for which the half-inhibitory concentration (IC50) is 13.3 µM (active).

`Cc1cc(/C=C2/C(=N)N3C(=NC2=O)SN=C3S(C)(=O)=O)c(C)n1-c1ccccc1`: the half-inhibitory concentration (IC50) is 19.1 µM (active).
